Data set [1] has as its system Trypanosoma brucei brucei. Put plainly: microbe, parasite or virus in culture. The following applies: Lister 427, 70 h.
Description: Antitrypanosomal activity against bloodstream Trypanosoma brucei brucei Lister 427 after 70 hrs by resazurin assay
A short description of a further data set: in vitro. The note with it: human, HepG2 cells.
A short description of data set [2]: Cytotoxicity against human HepG2 cells after 48 hrs by Celltiter-Glo assay. The note with it: HepG2 cells, read-out: TC50. It counts as cell-based.

Description for in vitro: Selectivity ratio TC50 for human HepG2 cells to EC50 for Trypanosoma brucei brucei Lister 427

In data set [1], `Cc1ccc2ncc3c(c2c1)n(-c1ccccc1)c(=O)n3C` returned an EC50 of 1.3 µM. For the same compound, the selectivity ratio in “in vitro” was more than 39. For the same compound, the CC50 at 48 h in data set [2] is more than 50 µM.
Turning to `CN1CCN(c2ccc3ncc4c(c3c2)n(-c2ccc(C(C)(C)C#N)cc2)c(=O)n4C)CC1`, the CC50 at 48 h in data set [2] was more than 50 µM.
In turn, `Cn1c(=O)n(-c2ccc(C(C)(C)C#N)cc2)c2c3cc(-c4cc5ccccc5s4)ccc3ncc21` gave an EC50 in data set [1] of 0.054 µM. For the same compound, the selectivity ratio in the data set “in vitro” is more than 460. In addition, the CC50 at 48 h in data set [2] was more than 25 µM.
The corresponding values for `CN(C)c1ccc(-n2c(=O)[nH]c3cnc4ccc(-c5ccncc5)cc4c32)cc1` are 0.042 µM, more than 1100 and more than 50 µM.
The corresponding values for `N#Cc1ccc(-n2c(=O)[nH]c3cnc4ccc(-c5cnc6ccccc6c5)cc4c32)cc1` are 0.184 µM, more than 270 and more than 50 µM.
The corresponding values for `Cn1c(=O)n(-c2ccc(C(C)(C)C#N)cc2)c2c3cc(C#Cc4cccnc4)ccc3ncc21` are 0.008 µM, 17.5 and 0.14 µM.
For `CN1CCN(Cc2ccc(-n3c(=O)n(C)c4cnc5ccc(-c6ccncc6)cc5c43)cc2)CC1`, in data set [1], the EC50 turned out to be 3.35 µM. The selectivity ratio in the data set “in vitro” is more than 2. In data set [2], the CC50 at 48 h was more than 7.6 µM.
As to `Cn1c(=O)n(-c2ccc(CC#N)cc2)c2c3cc(-c4ccncc4)ccc3ncc21`, the EC50 in data set [1] was 0.088 µM. Besides, the selectivity ratio in “in vitro” was more than 560. Further, the CC50 at 48 h in data set [2] is more than 50 µM.
For `Cn1c(=O)n(-c2ccc(C(C)(C)C#N)cc2)c2c3cc(N4CCOCC4)ccc3ncc21`, in data set [1], the EC50 was 2.04 µM. For the same compound, in the data set “in vitro”, the selectivity ratio is more than 24. Also, the CC50 at 48 h in data set [2] was more than 50 µM.
The corresponding values for `Cn1c(=O)n(-c2ccc(C(C)(C)C#N)cc2)c2c3cc(N)ccc3ncc21` are 10.6 µM, more than 4 and more than 50 µM.
In the case of `CN(C)c1ccc(-n2c(=O)n(C)c3cnc4ccc(-c5ccncc5)cc4c32)cc1`, in data set [1], the EC50 came to 0.082 µM. The selectivity ratio in the data set “in vitro” worked out at 28. In addition, the CC50 at 48 h in data set [2] worked out at 2.34 µM.
The corresponding values for `Cc1ccc2ncc3c(c2c1)n(-c1ccc(C(C)(C)C#N)cc1)c(=O)n3C` are 2.02 µM, more than 10 and more than 20 µM.
The corresponding values for `Cn1c(=O)n(-c2ccccc2)c2c3ccccc3ncc21` are 18.5 µM, more than 3 and more than 50 µM.
The corresponding values for `Cc1ccc(-n2c(=O)n(C)c3cnc4ccc(-c5ccc(C(=O)O)cc5)cc4c32)cc1` are 9.89 µM, more than 5 and more than 50 µM.
On to `Cn1c(=O)n(-c2ccc(N3CCOCC3)cc2)c2c3cc(-c4ccncc4)ccc3ncc21`, for which a half-maximal effect in data set [1] (EC50) was put at 0.316 µM. Moreover, the selectivity ratio in the data set “in vitro” was more than 24. In addition, the CC50 at 48 h in data set [2] is more than 7.6 µM.
The corresponding values for `Cn1c(=O)n(-c2ccc(C(C)(C)C#N)cc2)c2c3cc(-c4cccnc4)ccc3ncc21` are 0.016 µM, 36 and 0.575 µM.
The corresponding values for `Cn1c(=O)n(-c2ccc(C(C)(C)C#N)cc2)c2c3cc(-c4ccncc4)ccc3ncc21` are 0.136 µM, 25 and 3.43 µM.
Consider `CN(C)c1ccc(-n2c(=O)n(C)c3cnc4ccccc4c32)cc1`, for which the EC50 in data set [1] amounted to 9.33 µM. Besides, the selectivity ratio in the data set “in vitro” worked out at 0.3. In addition, in data set [2], the CC50 at 48 h was 3 µM.
The corresponding values for `Cn1c(=O)n(-c2ccc(C(F)(F)F)cc2)c2c3cc(-c4cnc5ccccc5c4)ccc3ncc21` are 0.103 µM, more than 240 and more than 25 µM.
The corresponding values for `Cn1c(=O)n(-c2ccccc2)c2c3cc(-c4cnc5ccccc5c4)ccc3ncc21` are 0.024 µM, more than 1000 and more than 25 µM.
Regarding `CC(=O)Nc1ccc2ncc3c(c2c1)n(-c1ccc(C(C)(C)C#N)cc1)c(=O)n3C`, the EC50 in data set [1] came out at 9.02 µM. In addition, the selectivity ratio in “in vitro” was more than 5. Also, the CC50 at 48 h in data set [2] is more than 50 µM.
In data set [1], `Cn1c(=O)n(-c2ccc(C(C)(C)C#N)cc2)c2c3cc(-c4ccccc4)ccc3ncc21` returned an EC50 of 0.159 µM. The selectivity ratio in the data set “in vitro” came out at 11. For the same compound, in data set [2], the CC50 at 48 h came out at 1.82 µM.
The corresponding values for `N#CCc1ccc(-n2c(=O)[nH]c3cnc4ccc(-c5ccncc5)cc4c32)cc1` are 0.199 µM, more than 250 and more than 50 µM.
On to `Cn1c(=O)n(C)c2c3cc(-c4ccncc4)ccc3ncc21`, for which the concentration for a half-maximal effect (EC50) in data set [1] came out at 3.27 µM. In addition, in the data set “in vitro”, the selectivity ratio was more than 6. The CC50 at 48 h in data set [2] was more than 20 µM.
The corresponding values for `CN(C)c1ccc(-n2c(=O)[nH]c3cnc4ccccc4c32)cc1` are 6.24 µM, 3 and 19.1 µM.
The corresponding values for `Cn1c(=O)n(-c2ccc(C(C)(C)C#N)cc2)c2c3cc(-c4ccc(C(F)(F)F)nc4)ccc3ncc21` are 0.053 µM, more than 470 and more than 25 µM.
In data set [1], `Cn1c(=O)n(-c2ccc(C#N)cc2)c2c3cc(-c4cnc5ccccc5c4)ccc3ncc21` registered an EC50 of 0.091 µM. The selectivity ratio in “in vitro” was more than 540. In addition, in data set [2], the CC50 at 48 h was more than 50 µM.

(Values after ChEMBL document CHEMBL3286093 (J Med Chem, 2014).)
